Our source for the melting point values is a melting point compilation (Tetko et al.; mined from patent text by program, amines drawn as free bases though some values may be those of a salt).

As for `O=C(c1ccc(Cl)c(Cl)c1)N1C(=O)N2CCCC2(Cc2ccc(Br)cc2)C1=O` (centres undefined), the melting point is 158 °C.
On to `Cc1c(C(=O)CCl)csc1C(=O)CCl`, for which the melting point is 155 to 156 °C.
As for `Cn1cc(-c2ccc(C(=O)N3Cc4cccn4Cc4ccccc43)c(Cl)c2)cn1`, the melting point was 105 to 109 °C.
`Cc1cc(F)ccc1NC(=O)CCC#Cc1cccc(CF)n1` showed a melting point of 122 to 125 °C.
The value for `CCN(c1nc(C)cc(C(=O)c2ncc[nH]2)n1)c1ccc(C(C)C)cc1Br` was 75 to 76 °C; that for `CO/C=C(/C(=O)OC)n1cccc1C=O` was 58 to 59 °C.
The value for `Cc1cn(Cc2ccc(N)cc2)cn1` was 141 to 142 °C; that for `Cc1ccc(S(=O)(=O)OCC2COc3ccc4c(c3O2)CCO4)cc1` (centres undefined) was 95 to 96 °C.
With `CCCc1c(OCCCSc2ccc3c(=O)cc(C(=O)O)[nH]c3c2CCC)ccc(C(C)=O)c1O`, the melting point was 192 to 194 °C.
As to `O=C(O)c1c(-c2cc(Cl)cc(Cl)c2)c2ccccc2n1Cc1cc2c(cc1Cl)OCO2`, the melting point is 221 to 222 °C.
Consider `CN(C)C(=O)c1ncn2c(=O)n(CCCl)nnc12`, for which the melting point fell in the range of 114 to 116 °C.
The value for `COc1ccc(CN(C)C)cc1CO` was 67 to 69 °C.
With `O=C(NCCCCOc1ccc(-n2ccnc2)cc1)c1ccc(F)cc1`, the melting point was 122 to 123 °C.
The value for `Cn1cnc2c1ccn1c(=O)c(-c3ccc(OCc4ccccc4)cc3)cc(C(=O)O)c21` was 227 to 229 °C; that for `NS(=O)(=O)c1cccc(N/C=C2\C(=O)Nc3ccccc32)c1` was > 250 °C.
Regarding `CCCCCCCCCCCCC(OC)C1=CC(=O)OC1O` (centres undefined), the melting point was 53 to 54 °C.
Next, `Oc1cc(=S)sc2cccc(C(F)(F)F)c12`: 142 to 144 °C; `CCc1nnc2ccc(-c3ccc(C(F)(F)F)cc3)nn12`: 194 to 196 °C; `CCC(CC)(CC(=O)Nc1cccc(SCc2ccc3ccc(F)cc3n2)c1)C(=O)O`: 70 to 71 °C.
`Cc1nc2c(N)cc(Br)cc2n1O` showed a melting point of 257 to 258 °C.
The value for `Cc1cc(C(C)(C)C)c(O)c(C)c1CC(=O)N1CCN(C(=O)Cc2c(C)cc(C(C)(C)C)c(O)c2C)CC1` was 305 to 310 °C.
`Fc1ccc(CSc2nc3cnccc3[nH]2)cc1F` displayed a melting point of 147 to 149 °C.
Next, `N#Cc1c(O)ccc2oc(-c3ccc(O)cc3)cc12`: > 230 °C; `O=C(O)Cc1cn(CCc2ccc(OCc3ccccc3)cc2)nc1-c1ccccc1`: 199 to 200 °C; `COc1ccc(N)cc1C12CC3CC(CC(C3)C1)C2`: 140 to 141 °C.
For `O=[N+]([O-])C[C@@H](O)[C@H](O)[C@@H](O)[C@@H](O)CO`, the melting point lay in the range of 89 to 91 °C.
Molecule `COc1cc(C)c(NCCO)cc1[N+](=O)[O-]` gave a melting point of 94 °C.
For `Cc1ccc(S(=O)(=O)N(C)c2ccc(Cl)cc2N=O)cc1`, the melting point lay within 113 to 114 °C.
Take `CCN(CC)CCCC1CCCN(C(=O)N2c3ccccc3NC(=O)c3cccnc32)C1` (centres undefined): the melting point fell in the range of 123 to 125 °C.
For the molecule `Cc1cc(OS(=O)(=O)c2c(F)cccc2F)cc2c(C3CCN(C)CC3)cn(C)c12`, the melting point worked out at 139 °C.
Next, `O=C(O)c1cc(C(F)(F)F)ccc1I`: 171 to 172 °C.
With `Cc1cccc(N2Cc3ccccc3P2(=O)c2ccccc2)c1` (centres undefined), the melting point is 190 to 192 °C.
`CC(C)Oc1cccc(CC(=O)OCc2c(-c3ccccc3)c3cc(Cl)ccc3c(=O)n2C)c1` came in with a melting point of 130 to 132 °C.
As to `Cn1c2c(c3ccccc31)CCOC2(C)C`, the melting point lay within 96 to 97 °C.
With `CC1=Nc2cc(Cl)c(S)cc2S(=O)(=O)N1`, the melting point is 304 to 305 °C.
In the case of `CC(CC(C(=O)N(C)C)(c1ccccc1)c1ccccc1)N1CCC(NC(=O)c2ccccc2O)C(O)C1` (centres undefined), the melting point was found to be 154 °C.
With `CCc1cc(-c2cccc(NC(C)=O)n2)c(OC)cc1OCCN(C)C`, the melting point turned out to be 114 °C.
Molecule `CCOc1ccc2c(c1)n(C1CCCCC1)c(=O)n2Cc1ccc(C(=O)NC(C)(C)C)cc1OC` gave a melting point of 186 °C.
Molecule `CCCCNC(=S)N1CCN(c2cnccn2)CC1` displayed a melting point of 97.5 to 98.5 °C.
`COC(=O)CC/C(C)=C/Cc1c(OC)c(C)c2c(c1C(=O)O)C(=O)OC2` returned a melting point of 169 to 170 °C.
The value for `C[C@@H](O)[C@@H](OCc1ccccc1)[C@H](OCc1ccccc1)[C@@H](C)O` was 46 to 50 °C; that for `CC(C)(C)OC(=O)CN1CCC2(CCNCC2)OC1=O` was 110 to 115 °C; that for `CCOC(=O)c1ccc(N(C)C)cc1C(=O)OCC` was 62 to 64 °C.
On to `CCOC(=O)C=Cc1cc(OCc2ccccc2)ccc1-c1ccc(-c2cccc(C)c2)c(C=O)c1`, for which the melting point lay in the range of 90 to 92 °C.
The value for `Nc1nc(=O)n(C2OC(CO)C(O)C2F)cc1Br` (centres undefined) was 201 to 202 °C; that for `O=c1cc(C(F)(F)F)nc(ON=C2CCCC2)n1-c1cc(Oc2ccccc2[N+](=O)[O-])c(Cl)cc1F` was 76 to 78 °C.
For `CCCCOc1cc2c(cc1OC)C(c1ccc(OC)c(OC)c1)=NN=C(C)C2CC` (centres undefined), the melting point lay within 147 to 150 °C.
Regarding `N#Cc1ccc2nc(C(O)(Cn3cncn3)c3ccc(F)cc3F)sc2c1` (centres undefined), the melting point was 170 to 172 °C.
The molecule `CN1C(=O)CCC(C)(C)c2cc(N)ccc21` returned a melting point of 119 to 122 °C.
For `Cn1ccc(-c2nnc(Cc3ccc(F)cc3)o2)c(O)c1=O`, the melting point fell in the range of 216 to 218 °C.
For the molecule `COC(=O)C(NC(=O)OC(C)(C)C)c1ccc(OS(=O)(=O)C(F)(F)F)cc1` (centres undefined), the melting point fell in the range of 67 to 67.6 °C.
In turn, `O=C(OCc1ccccc1)N1CCC(c2cc3ccccc3c(=O)[nH]2)CC1` returned a melting point of 179 to 181 °C.
Next, `COc1ccc(S(=O)(=O)C(Cl)(Cl)S(=O)(=O)N(C)C)cc1`: 145 to 147 °C; `CCCC1=C(C(=O)OCC)C(c2ccccc2S(C)=O)c2c[nH]nc2N1` (centres undefined): 216 °C.
Next, `CCCCc1ccc2c(c1)Cc1ccccc1-2`: 65 to 66.5 °C.
In turn, `O=C(NCc1ccc(Br)cc1F)c1ccc(Br)cc1[N+](=O)[O-]` registered a melting point of 192 to 193 °C.
`CCOC(=O)C(=O)Nc1ccc2c(=O)n3c(nc2c1)C(=Cc1ccccc1)CC3` had a melting point of 248 to 250 °C.
In turn, `COC(=O)CC(c1ccc(OC)c(OC)c1)N1C(=O)C2C=CCCC2C1=O` (centres undefined) yielded a melting point of 100 to 102 °C.
On to `CC(NC(Nc1ccc2c(c1)OCO2)=C(C#N)S(=O)(=O)c1ccc(Cl)cc1)C(C)(C)C` (centres undefined), for which the melting point was 160 to 162 °C.
As for `Cc1cc([N+](=O)[O-])c(O)c([N+](=O)[O-])c1C`, the melting point is 120 to 122 °C.
Next, `COc1ccc(C2CCCCC2)cc1-c1csc(NC(=O)C2CCN(C(=O)OC(C)(C)C)CC2)n1`: 193 °C.
In the case of `Cc1ccc(C(=O)c2noc(CC#N)n2)cc1`, the melting point lay within 76 to 78 °C.
The value for `CCNC(=O)n1cc(F)c(NC(=O)NCc2ccccc2OC)nc1=O` was 248 to 250 °C.
Next, `Cc1ccc(S(=O)(=O)N2C[C@@H]3C[C@H]2CN3C)cc1`: 87 to 88 °C; `CC(C)(C)c1cc(SCCO)cc(C(C)(C)C)c1O`: 66 °C.
As to `COc1ccc2oc3ccc(I)cc3c2c1C(=O)Nc1ccncc1`, the melting point fell in the range of 255 to 257 °C.
The value for `O=C(NCc1ccc(Br)cc1)c1c(F)cccc1F` was 142 °C.
Next, `O=C1NC(=O)C(Cc2ccccc2)S1` (centres undefined): 83 to 86 °C; `CCCCn1c(=O)[nH]c(=O)c2c1ncn2CC(C)=O`: 218 °C; `Cc1nc(N2CCN(CC3CC3)C2=O)sc1C(=O)NCc1cccnn1`: 187 to 189 °C.
`Clc1ccc(C(Cl)c2cc3cc(Br)ccc3o2)cc1` (centres undefined) showed a melting point of 83 to 85 °C.
`CON(c1ccc(C#N)cc1Cl)S(=O)(=O)c1ccc(C)cc1` showed a melting point of 145 to 147 °C.
The value for `COc1nc(-c2cc(C)c(OCCCc3cc(C)no3)c(C)c2)no1` was 64.5 to 65.5 °C.
In turn, `O=CNc1ccccc1CCc1ccccn1` came in with a melting point of 78 to 81 °C.
The molecule `Cc1c(N)noc1C(F)(F)F` yielded a melting point of 34.5 to 36 °C.
On to `COCOc1c(C)c(OC)c(OCOC)c(CCCCCc2c(OC)c(OCOC)c(C)c(OC)c2OCOC)c1OC`, for which the melting point is 83 to 84 °C.
The molecule `COC(=O)Cc1ccc(C(F)(F)F)cc1[N+](=O)[O-]` gave a melting point of 104 to 105 °C.
Next, `O=CCN1C=C(C(=O)O)Cc2cc(F)c(F)c(F)c21`: 220 to 222 °C.
Next, `CCC1c2ccc(C#N)n2-c2cc(F)c(F)cc2N1S(=O)(=O)c1ccc(OC)c(C)c1` (centres undefined): 153 to 155 °C; `CC(C)(C)C(=O)Oc1ccccc1-c1nnn[nH]1`: 82 to 85 °C.
`O=C(Nc1ccccc1S(=O)(=O)c1ccccc1)N[C@@H](Cc1ccc(NC(=O)c2c(Cl)cccc2Cl)cc1)C(=O)O`: the melting point amounted to 227 °C.
Next, `CCOC(=O)C1=C(C)NC(CSCCc2ccccc2)=C(C(=O)OCC)C1c1cccc([N+](=O)[O-])c1` (centres undefined): 73 to 75 °C; `COc1ccc(C2(C#Cc3ccc(C(=O)O)cc3)CCC(=O)CC2)cc1OC1CCCC1`: 170 to 171 °C.
As for `CC12CCC(C(=O)O)=CC1=CCC1C2CCC2(C)C(C(=O)CCCc3ccccc3)CCC12` (centres undefined), the melting point lay within 208 to 210 °C.
Turning to `O=c1[nH]c2cc(Cl)cc(Cl)c2c(=O)n1Cc1ccccc1Cl`, the melting point lay within 193 to 198 °C.
The molecule `COc1cc(O)c(N2CCN(CCN3CC(C)(C)C3)C2=O)cc1Cl` had a melting point of 138 °C.
With `COC(=O)CCc1ccc(N(c2ccc(-c3ccc(N(c4ccc(CCC(=O)OC)cc4)c4cccc5ccccc45)cc3)cc2)c2cccc3ccccc23)cc1`, the melting point is 117 to 120 °C.
The value for `CN1CCC(OC2c3ccccc3CC(C)(C)n3cc(-c4ccccc4)nc32)CC1` (centres undefined) was 85 °C; that for `COC(=O)c1ccc(CC(C)NCC(O)c2ccc(O)c(CO)c2)cc1OC` (centres undefined) was 64 to 71 °C.

The melting point is the temperature of the solid-liquid transition.
